Measured values reported in patent publication US6908931B2, “Tetrahydroisoquinoline derivatives as melatonin MT2 antagonists” (Bristol-Myers Squibb Company, priority 2003, dated 2005).

molecular target: T1, human MT2 receptor (Homo sapiens, UniProt P49286); assay: Melatonin receptor binding assay (MT2), 2-[125I]-iodomelatonin; conditions: membrane homogenates of NIH-3T3 cells expressing MT2; 2-[125I]-iodomelatonin 0.2 nM; 37° C., 1 hour; read-out: MT2 IC50
T1 construct: melatonin MT1 and MT2 receptors cDNA were individually subcloned into pcDNA3 and introduced into NIH-3T3 cells using Lipofectamine; expressed in transfected cells
T1 sequence (P49286 1-362): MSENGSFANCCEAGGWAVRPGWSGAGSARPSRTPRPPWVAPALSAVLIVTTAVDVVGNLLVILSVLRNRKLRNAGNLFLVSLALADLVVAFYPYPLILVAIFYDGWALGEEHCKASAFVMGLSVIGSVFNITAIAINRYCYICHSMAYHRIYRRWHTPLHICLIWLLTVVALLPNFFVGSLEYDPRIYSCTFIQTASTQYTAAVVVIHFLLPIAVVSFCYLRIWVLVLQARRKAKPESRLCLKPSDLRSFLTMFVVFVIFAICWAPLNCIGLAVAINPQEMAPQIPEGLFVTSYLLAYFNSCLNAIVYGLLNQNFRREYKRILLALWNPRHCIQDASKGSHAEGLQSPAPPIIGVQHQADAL
Protocol: Melatonin receptor binding assay.
Membrane homogenates: melatonin MT1 and MT2 receptors cDNA were individually subcloned into pcDNA3 and introduced into NIH-3T3 cells using Lipofectamine. […] For preparing membrane homogenates, pellets are thawed on ice, and re-suspended in TME buffer in the presence of 10 μg/ml aprotinin and leupeptin, and 100 μM phenylmethylsulfonylfluoride. The cells were then homogenized using a dounce homogenizer, and centrifuged. The resulting pellet was re-suspended with dounce homogenizer in TME (supplemented with the above protease inhibitors) and frozen. On the day of assay, a small aliquot was thawed on ice and re-suspended in the ice cold TME (1:50-1:100 v/v) and held on ice until assayed. Incubation is at 37° C. for 1 hour. Reaction is terminated by filtration. Filters were washed 3 times.

SMILES	IC50 [nM]
CCCC(=O)N1CCc2ccc(OC)cc2C1CCc1ccc(F)cc1 (stereo not shown) [Example 115]	< 100
CC(=O)N1CCc2cc3c(cc2C1CCc1ccc(F)cc1)OCO3 (stereo not shown) [Example 94]	100 to 1000
COc1cc2c(cc1OC)C(CCc1ccccc1)N(C(=O)c1ccco1)CC2 (stereo not shown) [Example 55]	< 100
COc1ccc2c(c1)C(CC(c1ccccc1)c1ccccc1)N(C(=O)c1cccc([N+](=O)[O-])c1)CC2 (stereo not shown) [Example 80]	100 to 1000
CCC(=O)N1CCc2cc3c(cc2C1CCc1ccc(F)cc1)OCO3 (stereo not shown) [Example 105]	< 100
COc1cc2c(cc1OC)C(CCc1ccccc1)N(C(=O)C1CCCCC1)CC2 (stereo not shown) [Example 58]	100 to 1000
COc1cc2c(cc1Br)CCN(C(=O)c1ccco1)C2CC(c1ccccc1)c1ccccc1 (stereo not shown) [Example 30]	100 to 1000
COc1cc2c(cc1Br)CCN(C(=O)C1CCCCC1)C2CC(c1ccccc1)c1ccccc1 (stereo not shown) [Example 33]	100 to 1000
CCC(=O)N1CCc2cc(OC)c(OC)cc2C1CCc1cccc(OC)c1 (stereo not shown) [Example 87]	< 100
COc1cc2c(cc1OC)C(CCc1ccccc1)N(C(=O)C(C)C)CC2 (stereo not shown) [Example 59]	100 to 1000
COC(=O)N1CCc2ccc(OC)cc2C1CCc1ccc(F)cc1 (stereo not shown) [Example 113]	< 100
CNC(=O)N1CCc2cc(OC)c(OC)cc2C1CC(c1ccccc1)c1ccccc1 (stereo not shown) [Example 9, N-methylcarbamoyl 1-(2,2-diphenyleth-1-yl)-6,7-dimethoxy-1,2,3,4-tetrahydroisoquinoline]	< 100
COc1cc2c(cc1OC)C(CCc1ccccc1)N(C(C)=O)CC2 (stereo not shown) [Example 14]	< 100
COc1cc2c(cc1OC)C(CC(c1ccccc1)c1ccccc1)N(C(N)=O)CC2 (stereo not shown) [Example 8, N-carbamoyl 1-(2,2-diphenyleth-1-yl)-6,7-dimethoxy-1,2,3,4-tetrahydroisoquinoline]	< 100
O=C(CCl)N1CCc2cc3c(cc2C1CCc1ccc(F)cc1)OCO3 (stereo not shown) [Example 98]	< 100
COc1cc2c(cc1OC)C(CC(c1ccccc1)c1ccccc1)N(C=O)CC2 (stereo not shown) [Example 2, N-formyl 1-(2,2-diphenyleth-1-yl)-6,7-dimethoxy-1,2,3,4-tetrahydroisoquinoline]	< 100
COc1ccc(C(=O)N2CCc3cc4c(cc3C2CCc2ccc(Cl)cc2)OCO4)cc1 (stereo not shown) [Example 141]	100 to 1000
CC(=O)OCC(=O)N1CCc2cc3c(cc2C1CCc1ccc(F)cc1)OCC3 (stereo not shown) [Example 133]	100 to 1000
COc1ccc(C(=O)N2CCc3ccc(OC)cc3C2CC(c2ccccc2)c2ccccc2)cc1 (stereo not shown) [Example 79]	100 to 1000
COc1cc2c(cc1Br)CCN(C(=O)C1CCC1)C2CC(c1ccccc1)c1ccccc1 (stereo not shown) [Example 32]	100 to 1000
COc1cc2c(cc1OC)C(CC(c1ccccc1)c1ccccc1)N(C(=O)C1CCC1)CC2 (stereo not shown) [Example 43]	100 to 1000
COc1cc2c(cc1Br)CCN(C(=O)c1ccc(C(F)(F)F)cc1)C2CC(c1ccccc1)c1ccccc1 (stereo not shown) [Example 40]	100 to 1000
COc1ccc2c(c1)C(CC(c1ccccc1)c1ccccc1)N(C(C)=O)CC2 (stereo not shown) [Example 20]	< 100
CCCC(=O)N1CCc2cc3c(cc2C1CCc1ccc(F)cc1)OCO3 (stereo not shown) [Example 101]	< 100

SMILES	IC50 [nM]
COc1cc2c(cc1OC)C(CC(c1ccccc1)c1ccc(Cl)cc1)N(C(C)=O)CC2 (stereo not shown) [Example 84]	< 100
COc1ccc2c(c1OC)CCN(C(C)=O)C2CC(c1ccccc1)c1ccccc1 (stereo not shown) [Example 24]	100 to 1000
COc1cc2c(cc1OC)C(CCc1ccccc1)N(C(=O)C1CCC1)CC2 (stereo not shown) [Example 57]	< 100
CC(C)COC(=O)N1CCc2cc3c(cc2C1CCc1ccc(Cl)cc1)OCO3 (stereo not shown) [Example 148]	100 to 1000
O=C(c1ccno1)N1CCc2cc3c(cc2C1CCc1ccc(F)cc1)OCO3 (stereo not shown) [Example 103]	< 100
CCCC(=O)N1CCc2cc(OC)c(OC)cc2C1CC(c1ccccc1)c1ccccc1 (stereo not shown) [Example 4, N-butyryl 1-(2,2-diphenyleth-1-yl)-6,7-dimethoxy-1,2,3,4-tetrahydroisoquinoline]	< 100
CCCC(=O)N1CCc2cc3c(cc2C1CCc1ccc(Cl)cc1)OCO3 (stereo not shown) [Example 144]	< 100
COc1cc2c(cc1Br)CCN(C(=O)c1cccc([N+](=O)[O-])c1)C2CC(c1ccccc1)c1ccccc1 (stereo not shown) [Example 37]	100 to 1000
COc1cc2c(cc1OC)C(CC1c3ccccc3-c3ccccc31)N(C(C)=O)CC2 (stereo not shown) [Example 26]	100 to 1000
COc1ccc2c(c1)C(CCc1ccc(F)cc1)N(C(=O)OCC(C)C)CC2 (stereo not shown) [Example 120]	100 to 1000
O=C(c1ccccc1)N1CCc2cc3c(cc2C1CCc1ccc(F)cc1)OCO3 (stereo not shown) [Example 93]	100 to 1000
COc1ccc2c(c1)C(CCc1ccc(F)cc1)N(C(=O)C1CCCC1)CC2 (stereo not shown) [Example 116]	< 100
CC(C)(C)CC(=O)N1CCc2cc3c(cc2C1CCc1ccc(F)cc1)OCO3 (stereo not shown) [Example 107]	100 to 1000
COc1cc2c(cc1OC)C(CC(c1ccccc1)c1ccccc1)N(C(=O)C1CC1)CC2 (stereo not shown) [Example 5, N-cyclopropylcarbonyl 1-(2,2-diphenyleth-1-yl)-6,7-dimethoxy-1,2,3,4-tetrahydroisoquinoline]	< 100
COc1cc2c(cc1OC)C(CC(c1ccc(Cl)cc1)c1ccc(Cl)cc1)N(C(C)=O)CC2 (stereo not shown) [Example 85]	< 100
COc1cc2c(cc1Br)CCN(C(=O)CC(C)(C)C)C2CC(c1ccccc1)c1ccccc1 (stereo not shown) [Example 36]	100 to 1000
COc1ccc2c(c1)C(CCc1ccc(F)cc1)N(C(C)=O)CC2 (stereo not shown) [Example 90]	< 100
O=C(c1ccccc1)N1CCc2cc3c(cc2C1CCc1ccc(Cl)cc1)OCO3 (stereo not shown) [Example 137]	100 to 1000
COc1cc2c(cc1OC)C(CC(c1ccccc1)c1ccccc1)N(C(=O)c1cccs1)CC2 (stereo not shown) [Example 13]	100 to 1000
COc1ccc2c(c1)C(CC(c1ccccc1)c1ccccc1)N(C(=O)c1ccc([N+](=O)[O-])cc1)CC2 (stereo not shown) [Example 81]	100 to 1000
CCCCCC(=O)N1CCc2cc(OC)c(OC)cc2C1CCc1ccccc1 (stereo not shown) [Example 60]	100 to 1000
COc1ccc2c(c1)C(CCc1ccc(F)cc1)N(C(=O)c1ccno1)CC2 (stereo not shown) [Example 117]	< 100
COc1cc2c(cc1OC)C(CCc1ccccc1)N(C(=O)c1ccc(C(F)(F)F)cc1)CC2 (stereo not shown) [Example 70]	100 to 1000
CCC(=O)N1CCc2ccc(OC)cc2C1CCc1ccc(F)cc1 (stereo not shown) [Example 119]	< 100

SMILES	IC50 [nM]
COc1cc2c(cc1OC)C(CCc1ccccc1)N(C(=O)c1cc(C(F)(F)F)cc(C(F)(F)F)c1)CC2 (stereo not shown) [Example 69]	100 to 1000
CC(=O)OCC(=O)N1CCc2cc3c(cc2C1CCc1ccc(Cl)cc1)OCO3 (stereo not shown) [Example 146]	100 to 1000
COc1ccc(C(CC2c3cc(OC)c(OC)cc3CCN2C(C)=O)c2ccc(OC)cc2)cc1 (stereo not shown) [Example 25]	100 to 1000
COc1cc2c(cc1OC)C(CCc1ccccc1)N(C(=O)c1cccc(C)c1)CC2 (stereo not shown) [Example 67]	100 to 1000
COc1cc2c(cc1Br)CCN(C(=O)c1ccc(C)cc1)C2CC(c1ccccc1)c1ccccc1 (stereo not shown) [Example 39]	100 to 1000
CCNC(=O)N1CCc2cc(OC)c(OC)cc2C1CCc1cccc(OC)c1 (stereo not shown) [Example 88]	< 100
COc1ccc2c(c1)C(CCc1ccc(F)cc1)N(C(=O)CC(C)(C)C)CC2 (stereo not shown) [Example 121]	100 to 1000
COc1cc2c(c(OC)c1)C(CC(c1ccccc1)c1ccccc1)N(C(C)=O)CC2 (stereo not shown) [Example 21]	< 100
COCC(=O)N1CCc2cc3c(cc2C1CCc1ccc(Cl)cc1)OCO3 (stereo not shown) [Example 140]	< 100
COc1cc2c(cc1OC)C(CC(C)c1ccccc1)N(C(C)=O)CC2 (stereo not shown) [Example 18]	100 to 1000
COCC(=O)N1CCc2ccc(OC)cc2C1CCc1ccc(F)cc1 (stereo not shown) [Example 110]	< 100
COc1cc2c(cc1Br)CCN(C(=O)c1ccc([N+](=O)[O-])cc1)C2CC(c1ccccc1)c1ccccc1 (stereo not shown) [Example 38]	100 to 1000
CC(C)COC(=O)N1CCc2cc3c(cc2C1CCc1ccc(F)cc1)OCO3 (stereo not shown) [Example 106]	100 to 1000
COc1cc2c(cc1OC)C(CC(c1ccccc1)c1ccccc1)N(S(C)(=O)=O)CC2 (stereo not shown) [Example 12]	< 100
COc1cc2c(cc1OC)C(CC(c1ccccc1)c1ccccc1)N(C(=O)c1ccco1)CC2 (stereo not shown) [Example 41]	100 to 1000
CCCCCCC(=O)N1CCc2cc(OC)c(OC)cc2C1CCc1ccccc1 (stereo not shown) [Example 61]	100 to 1000
O=C(CCl)N1CCc2cc3c(cc2C1CCc1ccc(Cl)cc1)OCO3 (stereo not shown) [Example 142]	< 100
COc1ccc2c(c1)C(CC(c1ccccc1)c1ccccc1)N(C(=O)c1cc(C(F)(F)F)cc(C(F)(F)F)c1)CC2 (stereo not shown) [Example 83]	100 to 1000
COc1ccc2c(c1)C(CC(c1ccccc1)c1ccccc1)N(C(C)=O)CC2 (stereo not shown) [Example 19]	< 100
COc1cccc2c1CCN(C(C)=O)C2CC(c1ccccc1)c1ccccc1 (stereo not shown) [Example 29]	100 to 1000
COc1cc2c(cc1OC)C(CCc1ccccc1)N(C=O)CC2 (stereo not shown) [Example 15]	< 100
COc1cc2c(cc1OC)C(CCc1ccccc1)N(C(=O)c1ccc([N+](=O)[O-])cc1)CC2 (stereo not shown) [Example 66]	100 to 1000
